Test results published in publication PMC9815576, “Cell-surface protein YwfG of Lactococcus lactis binds to α-1,2-linked mannose” (PLOS ONE, 2023).
Values joined by “and” are separate entries in the source; they are usually repeats but may differ in a detail not shown here. Equal entries are not always repeated. “Also recorded” adds a separate entry of the source. Where two headings read alike, the source gives them in different places.

What was measured:
YwfG28–336 = test: ITC of sugars against YwfG28–336; type: binding, Lactococcus lactis subsp. lactis G50; conditions: 100 μM YwfG28–336, 25°C
From the text: (§1) A MicroCal iTC200 system (Malvern Panalytical, Almelo, Netherlands) was used to measure enthalpy changes associated with interactions between the YwfG variants and the following yeast cell-wall components: the monosaccharides D-glucose, D-galactose, D-mannose, D-fucose, N-acetyl-D-glucosamine (GlcNAc), and 2-(acetylamino)-2-deoxy-D-galactose (GalNAc) (Sigma-Aldrich); α-1,2-, α-1,3-, α-1,4-, and α-1,6-mannobiose (Dextra Laboratories, Reading, UK); mannan from S. cerevisiae (Sigma-Aldrich); and yeast mannoproteins.
(§2) A solution of YwfG variant (100 μM YwfG28–270, YwfG28–336, YwfG28–511, or MubR4 in 20 mM Tris-HCl [pH 7.5]) was placed in a 200-μL calorimeter cell, and test solution (10 mM for monosaccharides, 2 mM for monosaccharides and mannobioses, 10 mg mL^−1 for yeast mannan, OD280 1.0 for mannoproteins) was loaded into the injection syringe. The test solution was titrated into the sample cell as a sequence of 20 injections of 2-μL aliquots each. All experiments were performed at 25°C.

YwfG28–511 = test: ITC of sugars against YwfG28–511; type: binding, Lactococcus lactis subsp. lactis G50; conditions: 100 μM YwfG28–511, 25°C
From the text: as §1, §2

yeast X2180-1A = test: Inhibition by sugars of yeast cell aggregation induced by YwfG variants; type: cell-based, Saccharomyces cerevisiae; conditions: sugar 1 mM as printed
Protocol: Saccharomyces cerevisiae X2180-1A was cultured in YPD medium to an OD600 of 0.6.

[1] = tested on: MubR4 (YwfG residues 860–1034); test: ITC of monosaccharides against MubR4; type: binding, Lactococcus lactis subsp. lactis G50; conditions: 100 μM MubR4, 25°C
From the text: as §1, §2

[2] = molecular target: YwfG28–270 (L-type lectin domain of YwfG) (Lactococcus lactis subsp. lactis, UniProt S6FKX6); test: Isothermal titration calorimetry (ITC) of sugars, mannan and mannoproteins against YwfG28–270; type: binding, Lactococcus lactis subsp. lactis G50; conditions: for Interaction with YwfG28–270 observed by ITC: 100 μM YwfG28–270, 25°C; for ΔH, enthalpy change / ΔS, entropy change: YwfG28–270
From the text: as §1, §2

[3] = tested on: legume (L)-type lectin–like module of SraP; parameters: method as in PMID 24901708; conditions: cited from earlier work
yeast cells = test: Aggregation of yeast cells by lactococcal cells; type: cell-based, Saccharomyces cerevisiae; conditions: 1 mM
Protocol: Lactococcal cells were cultured in CDMG and suspended in PBS to an OD600 of 1.0.

[4] = ITC, 25°C, 100 μM YwfG28–270 in 20 mM Tris-HCl pH 7.5, D-mannose: fixed stoichiometry (N = 1)
[5] = ITC, 25°C, D-mannose: fixed stoichiometry (N = 1)
[6] = ITC, 25°C, 100 μM YwfG28–270 in 20 mM Tris-HCl pH 7.5, D-mannose: fixed stoichiometry (N = 1), read-out: KD, dissociation constant

Chain of YwfG28–270 (L-type lectin domain of YwfG) (S6FKX6 entry or part of it): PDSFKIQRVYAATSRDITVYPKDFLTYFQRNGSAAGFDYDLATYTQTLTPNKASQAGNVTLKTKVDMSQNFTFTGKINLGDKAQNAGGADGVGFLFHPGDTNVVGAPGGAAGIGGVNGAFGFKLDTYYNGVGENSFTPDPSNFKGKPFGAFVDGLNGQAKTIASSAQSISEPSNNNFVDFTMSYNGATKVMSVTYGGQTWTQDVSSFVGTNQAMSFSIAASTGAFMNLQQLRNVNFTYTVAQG

Compound	Interaction with YwfG28–336 observed by ITC (YwfG28–336)	Interaction with YwfG28–511 observed by ITC (YwfG28–511)	Inhibition of aggregation induced by YwfG28–336 (yeast X2180-1A)	Inhibition of aggregation induced by YwfG28–511 (yeast X2180-1A)	Interaction with MubR4 observed by ITC [1]	Kd [2] [µM]	Interaction with YwfG28–270 observed by ITC [2]	N (sites), stoichiometry [2, 4]	ΔH, enthalpy change [2, 5] [kcal/mol]	ΔS, entropy change [2, 5] [cal/mol/deg]	Kd [2, 6]	Binding to the L-type lectin–like module of SraP [3]	Inhibition of aggregation induced by L. lactis G50 (yeast cells)
OC[C@H]1OC(O)[C@@H](O)[C@@H](O)[C@@H]1O (stereo partly drawn) [D-mannose]	only combination of variant and monosaccharide that showed an interaction was YwfG28–270 with D-mannose	only combination of variant and monosaccharide that showed an interaction was YwfG28–270 with D-mannose	inhibited	not by YwfG28–270 or YwfG28–511 was inhibited	only combination of variant and monosaccharide that showed an interaction was YwfG28–270 with D-mannose	500 ± 37	only interaction observed; also recorded: showed an interaction	(1.00) sites	-2.098 ± 0.08359	8.07			
CC(=O)N[C@@H]1[C@@H](O)[C@H](O)[C@@H](CO)O[C@@H]1O [GlcNAc, N-acetyl-D-glucosamine]	only combination of variant and monosaccharide that showed an interaction was YwfG28–270 with D-mannose	only combination of variant and monosaccharide that showed an interaction was YwfG28–270 with D-mannose			only combination of variant and monosaccharide that showed an interaction was YwfG28–270 with D-mannose		only combination of variant and monosaccharide that showed an interaction was YwfG28–270 with D-mannose						
OC[C@H]1O[C@H](O[C@H]2[C@H](O)[C@@H](CO)OC(O)[C@H]2O)[C@@H](O)[C@@H](O)[C@@H]1O (stereo partly drawn) [α-1,3-mannobiose]	No binding	No binding	weakly inhibited	weakly inhibited			bound	0.757 ± 0.148 sites	-6.073 ± 1.387	−3.15	172 ± 21 µM		
CC(=O)N[C@@H](C=O)[C@@H](O)[C@@H](O)[C@H](O)CO [GalNAc, 2-(acetylamino)-2-deoxy-D-galactose]	only combination of variant and monosaccharide that showed an interaction was YwfG28–270 with D-mannose	only combination of variant and monosaccharide that showed an interaction was YwfG28–270 with D-mannose			only combination of variant and monosaccharide that showed an interaction was YwfG28–270 with D-mannose		only combination of variant and monosaccharide that showed an interaction was YwfG28–270 with D-mannose						
OC[C@H]1O[C@H](O[C@H]2[C@H](O)[C@H](O)C(O)O[C@@H]2CO)[C@@H](O)[C@@H](O)[C@@H]1O (stereo partly drawn) [α-1,4-mannobiose]	No binding	No binding	weakly inhibited	weakly inhibited			bound	1.82 ± 0.171 sites	-2.206 ± 0.3097	9.55	328 ± 91 µM		
CC(=O)N[C@H]1[C@H]([C@H](O)[C@H](O)CO)OC(O)(C(=O)O)C[C@@H]1O (some centres unmarked) [N-acetylneuraminic acid]												specifically binds	
OC[C@H]1O[C@H](O[C@@H]2C(O)O[C@H](CO)[C@@H](O)[C@@H]2O)[C@@H](O)[C@@H](O)[C@@H]1O (stereo partly drawn) [α-1,2-mannobiose]	No binding	No binding	clearly inhibited	clearly inhibited			bound	1.19 ± 0.0104 sites	-5.236 ± 0.06207	2.86	34 µM and 34.4 µM		
C[C@H]1OC(O)[C@H](O)[C@@H](O)[C@H]1O (stereo partly drawn) [D-fucose]	only combination of variant and monosaccharide that showed an interaction was YwfG28–270 with D-mannose	only combination of variant and monosaccharide that showed an interaction was YwfG28–270 with D-mannose			only combination of variant and monosaccharide that showed an interaction was YwfG28–270 with D-mannose		only combination of variant and monosaccharide that showed an interaction was YwfG28–270 with D-mannose						
CO[C@H]1O[C@H](CO)[C@@H](O)[C@H](O)[C@@H]1O [methyl α-D-mannoside]	only combination of variant and monosaccharide that showed an interaction was YwfG28–270 with D-mannose	only combination of variant and monosaccharide that showed an interaction was YwfG28–270 with D-mannose	inhibited	not by YwfG28–270 or YwfG28–511 was inhibited	only combination of variant and monosaccharide that showed an interaction was YwfG28–270 with D-mannose		only combination of variant and monosaccharide that showed an interaction was YwfG28–270 with D-mannose						inhibited
OC[C@H]1O[C@H](OC[C@H]2O[C@H](O)[C@@H](O)[C@@H](O)[C@@H]2O)[C@@H](O)[C@@H](O)[C@@H]1O [α-1,6-mannobiose]	No binding	No binding	weakly inhibited	weakly inhibited			bound	1.21 ± 0.0839 sites	-4.235 ± 0.3728	2.62	210 ± 13 µM		
OC[C@H]1OC(O)[C@H](O)[C@@H](O)[C@@H]1O (stereo partly drawn) [D-glucose]	only combination of variant and monosaccharide that showed an interaction was YwfG28–270 with D-mannose	only combination of variant and monosaccharide that showed an interaction was YwfG28–270 with D-mannose			only combination of variant and monosaccharide that showed an interaction was YwfG28–270 with D-mannose		only combination of variant and monosaccharide that showed an interaction was YwfG28–270 with D-mannose						
O=C[C@H](O)[C@@H](O)[C@@H](O)[C@H](O)CO [D-galactose]	only combination of variant and monosaccharide that showed an interaction was YwfG28–270 with D-mannose	only combination of variant and monosaccharide that showed an interaction was YwfG28–270 with D-mannose			only combination of variant and monosaccharide that showed an interaction was YwfG28–270 with D-mannose		only combination of variant and monosaccharide that showed an interaction was YwfG28–270 with D-mannose						
